Measurements reported in US20240285670A1, “THERAPEUTIC TREATMENT OF TUMORS BY BLOCKING THE HEME SYNTHESIS-EXPORT AXIS” (Università degli Studi di Torino, priority 2021, published 2024).

Experiments:
SHSY5Y cells = experiment: Proliferation of SHSY5Y cells by crystal violet staining; format: cell-based, human; conditions: 5 mM ALA at day 0, no medium refresh
Method: (A) Heme content in SHSY5Y cells non-treated (NT) or treated with 5 mM ALA for 15 hours. Values are expressed as pmol heme/mg protein. Data represent mean±SEM, n=3; *=P<0.05. (B, C) qRT-PCR analysis of the expression of ALAS1 (B) and FLVCR1a (C) in SHSY5Y cells non-treated (NT) or treated with 5 mM ALA for 15 hours. Transcript abundance, normalized to beta-actin mRNA expression, is expressed as a fold increase over a calibrator sample. Data represent mean±SEM, n=4. For statistical analyses, an unpaired Student's t-test was used; *p<0.05. (D) qRT-PCR analysis of the expression of ALAS1 in SKCO1 cells untreated (NT) or treated with 5 mM ALA for 24 hours. Transcript abundance, normalized to beta-actin mRNA expression, is expressed as a fold increase over a calibrator sample. Data represent mean±SEM, n=5. […] Band intensities were measured by densitometry and normalized to beta-actin expression. […] (F) Proliferation of SHSY5Y cells assessed by crystal violet staining at different time points (starting from the day after plating, named “day 0”). Treatment with 5 mM ALA occurred at “day 0” and cells were monitored until the end of the experiment without medium refresh. […] (G) SKCO1 cells viability measured by the CellTiter-Fluor Cell Viability Assay (Promega, Madison, WI USA, catalog n°G6080) at different time points, starting from the day after plating (named “day 0”), as a readout of cell proliferation. […]

SKCO1 cells = experiment: Flow cytometric analysis of apoptosis in SKCO1 cells; format: cell-based, human; conditions: FLVCR1a-silenced vs scramble shRNA, synchronized SKCO1 cells
From the text: (A) Proliferation of Caco2 cells assessed by crystal violet staining at the indicated days; bar=1000 μm. […] Staining quantification is reported in the bar graph as percentage of crystal violet stained area. Data represent mean±SEM, n=4. For statistical analyses, a two-way analysis of variance was used, followed by the Bonferroni correction for multiple group comparisons; *=p<0.05, ***=p<0.001. (B) Caco2 cells viability the day of plating (day 0) and three days after plaiting (day 3). The measure is considered a readout of cell proliferation. […] Data represent mean±SEM, n=3 wells. For statistical analyses, a two-way analysis of variance was used, followed by the Bonferroni correction for multiple group comparisons; *=p<0.05, **=p<0.01. (C, D, E) Representative flow cytometric analyses of apoptosis in synchronized Caco2 (C), SKCO1 (D) and C80 (E) cells. […] Data represent mean±SEM, n=4 wells pooled from two independent experiments. For statistical analyses, an unpaired Student's t-test was used; *=p<0.05, **=p<0.01. […]
Stained cells were analyzed using a FACSCanto II cytofluorimeter and processed with BD FACSDIVA Software v8.1 (BD Biosciences, Milan, IT; http://www.bdbiosciences.com/instruments/software/facsdiva/index.jsp/ RRID:SCR_001456), acquiring at least 10,000 events per sample or 25,000 cells per sample for cell cycle experiments.

Compound | cell proliferation (SHSY5Y cells) | apoptosis (SKCO1 cells)
Cl.NCC(=O)CCC(=O)O [5-ALA, 5-Aminolevulinic acid hydrochloride] | reduced SHSY5Y cell proliferation | –
FLVCR1a shRNA: shRNA specifically down-regulating FLVCR1a without targeting FLVCR1b; pLKO.1 lentiviral clone TRCN0000059599, antisense SEQ ID No.: 2 (antisense TTGCTAATGATGCTGTACTGG; sense CCAGTACAGCATCATTAGCAA) | – | increased apoptosis
